Results on twelve molecules are retold here after US10618916B2, “Heterocyclic compounds as immunomodulators” (Incyte Corporation, priority 2018, dated 2020).

Each structure is given as a SMILES string.

Experiment [1] has as its target PD-L1 (Homo sapiens (Human), UniProt Q9NZQ7). Description: PD-L1 whole blood internalization assay. Type of experiment: cell-based. Conditions: 24 HR, PD-L1 expression on CD14+ cells, human interferon γ.
Experiment [2] deals with PD-1/PD-L1 protein/protein interaction (recombinant human PD-L1 and human PD-1) (Homo sapiens (Human), UniProt Q9NZQ7). Description: Homogeneous Time-Resolved Fluorescence (HTRF) PD-1/PD-L1 binding assay. Put shortly: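 Human PD-L1 (19-238, C-His; 10 nM final) and PD-1 (25-167, C-Fc; 3 nM final) preincubated 40 min with inhibitor in PBS pH 7.4, 0.05% Tween-20, 0.1% BSA, 1% DMSO, 25 °C. Eu-anti-human IgG (1 nM) and anti-His-APC (20 nM) added for 60 min; 665/620 nm ratio; IC50 from percent-control curves.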
Sequence of PD-1/PD-L1 protein/protein interaction (recombinant human PD-L1 and human PD-1) (Q9NZQ7 19-238): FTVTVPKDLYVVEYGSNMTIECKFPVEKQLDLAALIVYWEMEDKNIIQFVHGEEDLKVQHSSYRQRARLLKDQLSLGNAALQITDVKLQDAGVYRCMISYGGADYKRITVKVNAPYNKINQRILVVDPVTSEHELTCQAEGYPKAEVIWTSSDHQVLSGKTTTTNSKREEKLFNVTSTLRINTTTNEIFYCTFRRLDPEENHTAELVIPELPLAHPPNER

Experiment [3] concerns U2OS/PD-L1 cells and Jurkat-PD-1-SHP cells. Description: Src homology region 2 domain-containing phosphatase (SHP) assay. The note with it: Homo sapiens, U2OS. Type of experiment: cell-based. An outline of the steps: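 U2OS/PD-L1 and Jurkat-PD-1-SHP cells (5000 each per well) were co-incubated with compound for 2 h at 37 °C in RPMI1640 with 1% FBS, 0.05% DMSO final. PathHunter chemiluminescence was read after 1 h at room temperature, and IC50 was fitted from percent of DMSO-control activity.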

Experiment [4] has as its system PD-L1 aAPC/CHO-K1 cells and Jurkat-PD-1-NFAT effector cells. Description: Nuclear factor of activated T-cells (NFAT) assay. Type of experiment: cell-based. The note with it: Cricetulus griseus, CHO-K1. An outline of the steps:
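CHO-K1 cells expressing PD-L1 aAPC were co-cultured with Jurkat-PD-1-NFAT effector cells in RPMI 1640 with 1% FBS and compound (0.4% DMSO; top concentration 2 μM) for 24 h at 37 °C. Bio-Glo luminescence was read, fold induction normalised to DMSO wells, and EC50 fitted from percent of control compound activity.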

Sequence of PD-L1 (Q9NZQ7 19-290): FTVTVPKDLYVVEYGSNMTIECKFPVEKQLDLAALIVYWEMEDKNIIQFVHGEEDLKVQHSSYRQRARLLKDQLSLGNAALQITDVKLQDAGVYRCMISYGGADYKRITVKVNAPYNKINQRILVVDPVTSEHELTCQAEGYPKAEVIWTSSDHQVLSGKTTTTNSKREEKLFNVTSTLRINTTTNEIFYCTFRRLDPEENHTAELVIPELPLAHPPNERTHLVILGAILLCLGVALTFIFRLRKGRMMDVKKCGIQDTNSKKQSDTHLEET

Regarding `Cc1c(NC(=O)c2nc3c(n2C)CCNC3)cccc1-c1cccc(NC(=O)c2nc3c(n2C)CCN(CCC24CCC(C(=O)O)(CC2)C4)C3)c1Cl` [Example 27, 4-(2-(2-((2-chloro-2′-methyl-3′-(1-methyl-4,5,6,7-tetrahydro-1H-imidazo[4,5-c]pyridine-2-carboxamido)-[1,1′-biphenyl]-3-yl)carbamoyl)-1-methyl-1,4,6,7-tetrahydro-5H-imidazo[4,5-c]pyridin-5-yl)ethyl)bicyclo[2.2.1]heptane-1-carboxylic Acid], the concentration for half-maximal inhibition (IC50) (in general, the concentration that gives 50% inhibition) is 10 to 100 nM in experiment [1], not above 5 nM in experiment [2] and not above 10 nM in experiment [3]. The concentration for a half-maximal effect (EC50) (commonly the concentration needed to bring the measured effect to its halfway point) in experiment [4] lay in the range of 10 to 100 nM.

With `Cc1c(NC(=O)c2nc3c(n2C)CCN(C2CCN(C(N)=O)CC2)C3)cccc1-c1cccc(NC(=O)c2nc3c(n2C)CCN(CCC24CCC(C(=O)O)(CC2)C4)C3)c1Cl` [Example 30, 4-(2-(2-((3′-(5-(1-carbamoylpiperidin-4-yl)-1-methyl-4,5,6,7-tetrahydro-1H-imidazo[4,5-c]pyridine-2-carboxamido)-2-chloro-2′-methyl-[1,1′-biphenyl]-3-yl)carbamoyl)-1-methyl-1,4,6,7-tetrahydro-5H-imidazo[4,5-c]pyridin-5-yl)ethyl)bicyclo[2.2.1]heptane-1-carboxylic acid], the half-maximal inhibitory concentration (IC50) was 10 to 100 nM in experiment [1], not above 5 nM in experiment [2] and not above 10 nM in experiment [3]. The EC50 in experiment [4] was 10 to 100 nM.

Take `Cc1c(NC(=O)c2nc3c(n2C)CCN(C[C@@H](C)O)C3)cccc1-c1cccc(NC(=O)c2nc3c(n2C)CCN(CCC24CCC(C(=O)O)(CC2)C4)C3)c1Cl` [Example 31, (R)-4-(2-(2-((2-chloro-3′-(5-(2-hydroxypropyl)-1-methyl-4,5,6,7-tetrahydro-1H-imidazo[4,5-c]pyridine-2-carboxamido)-2′-methyl-[1,1′-biphenyl]-3-yl)carbamoyl)-1-methyl-1,4,6,7-tetrahydro-5H-imidazo[4,5-c]pyridin-5-yl)ethyl)bicyclo[2.2.1]heptane-1-carboxylic Acid]: the IC50 is 10 to 100 nM in experiment [1], not above 5 nM in experiment [2] and not above 10 nM in experiment [3]. Also, in experiment [4], the EC50 fell in the range of 10 to 100 nM.

`Cc1c(NC(=O)c2nc3c(n2C)CCN(CCC24CCC(C(=O)O)(CC2)C4)C3)cccc1-c1cccc(NC(=O)c2nc3c(n2C)CCN(CCC24CCC(C(=O)O)(CC2)C4)C3)c1Cl` [Example 34, 4,4′-(((((2-chloro-2′-methyl-[1,1′-biphenyl]-3,3′-diyl)bis(azanediyl))bis(carbonyl))bis(1-methyl-1,4,6,7-tetrahydro-5H-imidazo[4,5-c]pyridine-2,5-diyl))bis(ethane-2,1-diyl))bis(bicyclo[2.2.1]heptane-1-carboxylic acid)]: the figures for the half-maximal inhibitory concentration (IC50) in experiment [1], in experiment [2] and in experiment [3] were 10 to 100 nM, not above 5 nM and not above 10 nM, respectively. In addition, the half-maximal effective concentration (EC50) in experiment [4] is 10 to 100 nM.

With `Cc1c(NC(=O)c2nc3c(n2C)CCN(CC24CCC(C(=O)O)(CC2)C4)C3)cccc1-c1cccc(NC(=O)c2nc3c(n2C)CCN(CCC24CCC(C(=O)O)(CC2)C4)C3)c1Cl` [Example 35, 4-((2-((3′-(5-(2-(4-carboxybicyclo[2.2.1]heptan-1-yl)ethyl)-1-methyl-4,5,6,7-tetrahydro-1H-imidazo[4,5-c]pyridine-2-carboxamido)-2′-chloro-2-methyl-[1,1′-biphenyl]-3-yl)carbamoyl)-1-methyl-1,4,6,7-tetrahydro-5H-imidazo[4,5-c]pyridin-5-yl)methyl)bicyclo[2.2.1]heptane-1-carboxylic acid], the IC50 is 100 to 500 nM in experiment [1], not above 5 nM in experiment [2] and 10 to 100 nM in experiment [3]. The molecule further displayed a 50% effective concentration (EC50) in experiment [4] of 100 to 500 nM.

Take `Cc1c(NC(=O)c2nc3c(n2C)CCN(CCc2ccc(C(=O)O)cc2)C3)cccc1-c1cccc(NC(=O)c2nc3c(n2C)CCN(CCC24CCC(C(=O)O)(CC2)C4)C3)c1Cl` [Example 36, 4-(2-(2-((3′-(5-(4-carboxyphenethyl)-1-methyl-4,5,6,7-tetrahydro-1H-imidazo[4,5-c]pyridine-2-carboxamido)-2-chloro-2′-methyl-[1,1′-biphenyl]-3-yl)carbamoyl)-1-methyl-1,4,6,7-tetrahydro-5H-imidazo[4,5-c]pyridin-5-yl)ethyl)bicyclo[2.2.1]heptane-1-carboxylic acid]: the IC50 is 10 to 100 nM in experiment [1], not above 5 nM in experiment [2] and not above 10 nM in experiment [3]. Also, the EC50 in experiment [4] is 10 to 100 nM.

Turning to `Cc1c(NC(=O)c2nc3c(n2C)CCN(CCC24CCC(C(=O)O)(CC2)C4)C3)cccc1-c1cccc(NC(=O)c2nc3c(n2C)CCNC3)c1Cl` [Example 37, 4-(2-(2-((2′-chloro-2-methyl-3′-(1-methyl-4,5,6,7-tetrahydro-1H-imidazo[4,5-c]pyridine-2-carboxamido)-[1,1′-biphenyl]-3-yl)carbamoyl)-1-methyl-1,4,6,7-tetrahydro-5H-imidazo[4,5-c]pyridin-5-yl)ethyl)bicyclo[2.2.1]heptane-1-carboxylic Acid], the concentration for half-maximal inhibition (IC50) in experiment [1] was 10 to 100 nM; in experiment [2] it was not above 5 nM; in experiment [3] it was not above 10 nM. Further, the EC50 in experiment [4] lay within 10 to 100 nM.

In the case of `Cc1c(NC(=O)c2nc3c(n2C)CCN(CCC24CCC(C(=O)O)(CC2)C4)C3)cccc1-c1cccc(NC(=O)c2nc3c(n2C)CCN(C2CCOCC2)C3)c1Cl` [Example 38, 4-(2-(2-((2′-chloro-2-methyl-3′-(1-methyl-5-(tetrahydro-2H-pyran-4-yl)-4,5,6,7-tetrahydro-1H-imidazo[4,5-c]pyridine-2-carboxamido)-[1,1′-biphenyl]-3-yl)carbamoyl)-1-methyl-1,4,6,7-tetrahydro-5H-imidazo[4,5-c]pyridin-5-yl)ethyl)bicyclo[2.2.1]heptane-1-carboxylic acid], the figures for the IC50 in experiment [1], in experiment [2] and in experiment [3] were 10 to 100 nM, not above 5 nM and not above 10 nM, respectively. Besides, the EC50 in experiment [4] fell in the range of 10 to 100 nM.

As to `Cc1c(NC(=O)c2nc3c(n2C)CCN(CCC24CCC(C(=O)O)(CC2)C4)C3)cccc1-c1cccc(NC(=O)c2nc3c(n2C)CCN(C2CCN(C(N)=O)CC2)C3)c1Cl` [Example 40, 4-(2-(2-((3′-(5-(1-carbamoylpiperidin-4-yl)-1-methyl-4,5,6,7-tetrahydro-1H-imidazo[4,5-c]pyridine-2-carboxamido)-2′-chloro-2-methyl[1,1′-biphenyl]-3-yl)carbamoyl)-1-methyl-1,4,6,7-tetrahydro-5H-imidazo[4,5-c]pyridin-5-yl)ethyl)bicyclo[2.2.1]heptane-1-carboxylic acid], the concentration for half-maximal inhibition (IC50) in experiment [1] was 10 to 100 nM; in experiment [2], not above 5 nM; in experiment [3] it was not above 10 nM. In experiment [4], this molecule had a half-maximal effective concentration (EC50) of 10 to 100 nM.

For the molecule `Cc1c(NC(=O)c2nc3c(n2C)CCN(CCC24CCC(C(=O)O)(CC2)C4)C3)cccc1-c1cccc(NC(=O)c2nc3c(n2C)CCN(C[C@@H](C)O)C3)c1Cl` [Example 41, (R)-4-(2-(2-((2′-chloro-3′-(5-(2-hydroxypropyl)-1-methyl-4,5,6,7-tetrahydro-1H-imidazo[4,5-c]pyridine-2-carboxamido)-2-methyl-[1,1′-biphenyl]-3-yl)carbamoyl)-1-methyl-1,4,6,7-tetrahydro-5H-imidazo[4,5-c]pyridin-5-yl)ethyl)bicyclo[2.2.1]heptane-1-carboxylic Acid], the IC50 in experiment [1] was 10 to 100 nM; in experiment [2] it was not above 5 nM; in experiment [3], not above 10 nM. The concentration giving a half-maximal response (EC50) in experiment [4] lay within 10 to 100 nM.

On to `Cc1c(NC(=O)c2nc3c(n2C)CCN(CCC24CCC(C(=O)O)(CC2)C4)C3)cccc1-c1cccc(NC(=O)c2nc3c(n2C)CCN(C[C@H](C)O)C3)c1Cl` [Example 42, (S)-4-(2-(2-((2′-chloro-3′-(5-(2-hydroxypropyl)-1-methyl-4,5,6,7-tetrahydro-1H-imidazo[4,5-c]pyridine-2-carboxamido)-2-methyl-[1,1′-biphenyl]-3-yl)carbamoyl)-1-methyl-1,4,6,7-tetrahydro-5H-imidazo[4,5-c]pyridin-5-yl)ethyl)bicyclo[2.2.1]heptane-1-carboxylic acid], for which the 50% inhibitory concentration (IC50) in experiment [1] was 10 to 100 nM; in experiment [2], not above 5 nM; in experiment [3], not above 10 nM. The molecule further showed a concentration giving a half-maximal response (EC50) in experiment [4] of 10 to 100 nM.

As for `Cc1c(NC(=O)c2nc3c(n2C)CCN(CCC24CCC(C(=O)O)(CC2)C4)C3)cccc1-c1cccc(NC(=O)c2nc3c(n2C)CCN(CCO)C3)c1Cl` [Example 43, 4-(2-(2-((2′-chloro-3′-(5-(2-hydroxyethyl)-1-methyl-4,5,6,7-tetrahydro-1H-imidazo[4,5-c]pyridine-2-carboxamido)-2-methyl-[1,1′-biphenyl]-3-yl)carbamoyl)-1-methyl-1,4,6,7-tetrahydro-5H-imidazo[4,5-c]pyridin-5-yl)ethyl)bicyclo[2.2.1]heptane-1-carboxylic acid], the IC50 in experiment [1] is 10 to 100 nM; in experiment [2], not above 5 nM; in experiment [3], not above 10 nM. The molecule further displayed a concentration giving a half-maximal response (EC50) in experiment [4] of 10 to 100 nM.
